Values quoted from earlier work, collected in PubChem BioAssay AID1259409 (Chemical Carcinogenesis Research Information System (CCRIS), 2018).

System: rodent chemically induced tumor inhibition, incidence and multiplicity
Experiment: CCRIS tumor inhibitor studies
Details: for outcome: Carcinogen: 2-Amino-1-methyl-6-phenylimidazo[4,5-b]pyridine (105650-23-5), Dose [Inhibitor]: 0.2% in drinking water for 4 wk (Study duration 48 wk), Route [Inhibitor]: Oral, Species: Rat, Strain/Sex: Sprague Dawley/Female, Dose [Carcinogen]: 100 mg/kg twice a wk for 4 wk (Test material solvent: corn oil), Promoter: None used

For `CC1(C)O[C@@H]2C[C@H]3[C@@H]4C[C@H](F)C5=CC(=O)C=C[C@]5(C)[C@@]4(F)[C@@H](O)C[C@]3(C)[C@]2(C(=O)CO)O1`, the “tumour outcome (control, treated, inhibition, significance)” value (Carcinogen: 3-METHYLCHOLANTHRENE, 56-49-5, Dose [Inhibitor]: 1 UG IN ACETONE 2/WK FOR 23 WK BEGINNING 1 WK POST CARCINOGEN DOSE (STUDY DURATION: 24 WK), Route [Inhibitor]: DERMAL, Species: MOUSE, Strain/Sex: CD-1/MALE, Target Tissue: Type of Lesion: SKIN: TUMOR, Dose [Carcinogen]: 600 UG IN ACETONE ONCE, Promoter: NONE USED) is given as 10%, 5%, 50%, not calculated, the “tumour outcome (control, treated, inhibition, significance)” value (Carcinogen: 3-METHYLCHOLANTHRENE, 56-49-5, Dose [Inhibitor]: 10 UG IN ACETONE 2/WK FOR 23 WK BEGINNING 1 WK POST CARCINOGEN DOSE (STUDY DURATION: 24 WK), Route [Inhibitor]: DERMAL, Species: MOUSE, Strain/Sex: CD-1/MALE, Target Tissue: Type of Lesion: SKIN: TUMOR, Dose [Carcinogen]: 600 UG IN ACETONE ONCE, Promoter: NONE USED) is given as 10%, 45%, -350%, not calculated and the “tumour outcome (control, treated, inhibition, significance)” value (Carcinogen: 7,12-DIMETHYLBENZ[A]ANTHRACENE, 57-97-6, Dose [Inhibitor]: 0, 0.5 NMOL IN 200 µL ACETONE APPLIED 30 MIN PRIOR TO EACH PROMOTER DOSE 2/WK FOR 25 WK BEGINNING 1 WK POST CARCINOGEN D, Route [Inhibitor]: DERMAL, Species: MOUSE, Strain/Sex: CD-1/FEMALE, Target Tissue: Type of Lesion: SKIN: PAPILLOMA, Dose [Carcinogen]: 200 NMOL IN 200 µL ACETONE ONCE, Promoter: 12-O-TETRADECANOYLPHORBOL-13-ACETATE, 16561-29-8) is given as 90%, 40%, 56%, not calculated. The “tumour outcome (control, treated, inhibition, significance)” value (Carcinogen: 7,12-DIMETHYLBENZ[A]ANTHRACENE, 57-97-6, Dose [Inhibitor]: 0, 0.5 NMOL IN 200 µL ACETONE APPLIED 30 MIN PRIOR TO EACH PROMOTER DOSE 2/WK FOR 25 WK BEGINNING 1 WK POST CARCINOGEN D, Route [Inhibitor]: DERMAL, Species: MOUSE, Strain/Sex: CD-1/FEMALE, Target Tissue: Type of Lesion: SKIN: PAPILLOMA, Dose [Carcinogen]: 200 NMOL IN 200 µL ACETONE ONCE, Promoter: MIREX, 2385-85-5) was 100%, 97%, 3%, not significant, the “tumour outcome (control, treated, inhibition, significance)” value (Carcinogen: 7,12-DIMETHYLBENZ[A]ANTHRACENE, 57-97-6, Dose [Inhibitor]: 0, 2 NMOL IN 200 µL ACETONE APPLIED 30 MIN PRIOR TO EACH PROMOTER DOSE 2/WK FOR 25 WK BEGINNING 1 WK POST CARCINOGEN DOS, Route [Inhibitor]: DERMAL, Species: MOUSE, Strain/Sex: CD-1/FEMALE, Target Tissue: Type of Lesion: SKIN: PAPILLOMA, Dose [Carcinogen]: 200 NMOL IN 200 µL ACETONE ONCE, Promoter: 12-O-TETRADECANOYLPHORBOL-13-ACETATE, 16561-29-8) was 90%, 11%, 88%, not calculated and the “tumour outcome (control, treated, inhibition, significance)” value (Carcinogen: 7,12-DIMETHYLBENZ[A]ANTHRACENE, 57-97-6, Dose [Inhibitor]: 0, 2 NMOL IN 200 µL ACETONE APPLIED 30 MIN PRIOR TO EACH PROMOTER DOSE 2/WK FOR 25 WK BEGINNING 1 WK POST CARCINOGEN DOS, Route [Inhibitor]: DERMAL, Species: MOUSE, Strain/Sex: CD-1/FEMALE, Target Tissue: Type of Lesion: SKIN: PAPILLOMA, Dose [Carcinogen]: 200 NMOL IN 200 µL ACETONE ONCE, Promoter: MIREX, 2385-85-5) was 100%, 92%, 8%, not calculated.
For `CC(N)C(=O)NCC(=O)NC1CSSCC(C(=O)O)NC(=O)C(CO)NC(=O)C(C(C)O)NC(=O)C(Cc2ccccc2)NC(=O)C(C(C)O)NC(=O)C(CCCCN)NC(=O)C(Cc2c[nH]c3ccccc23)NC(=O)C(Cc2ccccc2)NC(=O)C(Cc2ccccc2)NC(=O)C(CC(N)=O)NC(=O)C(CCCCN)NC1=O` (configuration not stated), the “tumour outcome (control, treated, inhibition, significance)” value (Carcinogen: N-NITROSOMORPHOLINE, 59-89-2, Dose [Inhibitor]: 0, 200 UG/KG BW 1/2 D FOR DURATION OF STUDY (STUDY DURATION: 16 WK), Route [Inhibitor]: SUBCUTANEOUS, Species: RAT, Strain/Sex: SPRAGUE-DAWLEY/MALE, Target Tissue: Type of Lesion: LIVER: HEPATOCELLULAR CARCINOMA, Dose [Carcinogen]: 175 MG/L DRINKING WATER FOR 8 WK, Promoter: NONE USED) is listed as 8/25 (32%), 4/25 (16%), 50%, not significant.
In the case of `CCCCCCCCCCCCCCCCCCCCCCCCCCCCOC(=O)/C=C/c1ccc(O)c(OC)c1`, the “tumour outcome (control, treated, inhibition, significance)” value (Carcinogen: 7,12-DIMETHYLBENZ[A]ANTHRACENE, 57-97-6, Dose [Inhibitor]: 0, 2 UMOL IN ACETONE/DMSO (9:1) 2/WK FOR 20 WK BEGINNING 1 WK POST CARCINOGEN DOSE (STUDY DURATION: 20 WK), Route [Inhibitor]: DERMAL, Species: MOUSE, Strain/Sex: ICR/FEMALE, Target Tissue: Type of Lesion: SKIN: PAPILLOMA, Dose [Carcinogen]: 50 UG ONCE, Promoter: 12-O-TETRADECANOYLPHORBOL-13-ACETATE, 16561-29-8) is listed as 100%, 20%, 80%, not calculated.
In the case of `O=NO`, the “tumour outcome (control, treated, inhibition, significance)” value (Carcinogen: 2-AMINO-1-METHYL-6-PHENYL-1H-IMIDAZO[4,5-B]PYRID INE, 105650-23-5, Dose [Inhibitor]: 0, 0.2% IN DRINKING WATER FOR 4 WK BEGINNING AT 6 WK OF AGE (STUDY DURATION: 48 WK), Route [Inhibitor]: ORAL, Species: RAT, Strain/Sex: SPRAGUE-DAWLEY/FEMALE, Target Tissue: Type of Lesion: MAMMARY GLAND: ADENOCARCINOMA, Dose [Carcinogen]: 100 MG/KG BW 2/WK FOR 4 WK CONCURRENT WITH INHIBITOR, Promoter: NONE USED) is given as 11/20 (55%), 6/10 (60%), -9%, not significant, the “tumour outcome (control, treated, inhibition, significance)” value (Carcinogen: 2-AMINO-1-METHYL-6-PHENYL-1H-IMIDAZO[4,5-B]PYRID INE, 105650-23-5, Dose [Inhibitor]: 0, 0.2% IN DRINKING WATER FOR 4 WK BEGINNING AT 6 WK OF AGE (STUDY DURATION: 48 WK), Route [Inhibitor]: ORAL, Species: RAT, Strain/Sex: SPRAGUE-DAWLEY/FEMALE, Target Tissue: Type of Lesion: MAMMARY GLAND: FIBROADENOMA, Dose [Carcinogen]: 100 MG/KG BW 2/WK FOR 4 WK CONCURRENT WITH INHIBITOR, Promoter: NONE USED) is given as 3/20 (15%), 2/10 (20%), -33%, not significant and the outcome (Target Tissue: Type of Lesion: Mammary gland: Carcinoma) is given as 11/20 (55%), 6/10 (60%), not significant. For the same molecule, the outcome (Target Tissue: Type of Lesion: Mammary gland: Fibroadenoma) was 3/20 (15%), 2/10 (20%), not significant.
